Patent publication US6596863B2, “Medical composition containing nitroetheneamine Derivative or salt there of as active constituent” (Ishihara Sangyo Kaisha, Ltd., priority 1998, dated 2003)
Like-named read-outs stand apart in the source and are kept apart here. Marks after values point to notes of the source that are not given here.

Legend:
[1] = target: T1, human MMP-9 (gelatinase B) (Homo sapiens, UniProt P14780); test: Inhibition activity against human MMP-9 (gelatinase B), fluorescent peptide substrate; type: biochemical; conditions: compounds of the formula (I)
T1 construct: endogenous in cells; host or cells: HT1080 human fibrosarcoma cells (ATCC CCL-121), PMA-stimulated; enzyme purified from the culture supernatant
Outline: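 MMP-9 purified from PMA-stimulated (10 ng/ml) HT1080 supernatant, or commercial enzyme (0.0125-0.025 unit/ml or 0.2 μg/ml final), incubated with compound and 10 μM final Mca-Pro-Leu-Gly-Leu-Dpa-Ala-Arg-NH2 fluorescent substrate at 37 °C for 3 h in the dark. Precursor enzyme activated with APMA.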

human MMP-7 = target: T2, human MMP-7 (Homo sapiens, UniProt P09237); test: Enzyme inhibition activity against MMP-7 (matrilysin), fluorescent peptide substrate NFF-2; type: biochemical; conditions: human MMP-7, substrate NFF-2, 37° C. for 2.5 hours
T2 construct: purchased Kabushiki Kaisha Yagai Chuo Kenkyusho YU-31001
T2 sequence (P09237 95-267): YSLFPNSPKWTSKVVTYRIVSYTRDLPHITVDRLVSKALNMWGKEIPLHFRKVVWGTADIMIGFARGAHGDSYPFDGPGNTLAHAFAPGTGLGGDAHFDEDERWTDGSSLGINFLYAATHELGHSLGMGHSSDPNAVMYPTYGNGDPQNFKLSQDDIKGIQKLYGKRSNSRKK
Protocol: The inhibition activity against human MMP-7 was measured by the same method as the method for MMP-3, by using a MMP-7 solution (0.025 unit/ml; No. YU-31001, manufactured by Kabushiki Kaisha Yagai Chuo Kenkyusho, purity: at least 99.9%) and a fluorescent peptide substrate MOCAc—Arg-Pro-Lys-Pro-Tyr—Ala-Nva-Trp-Met-Lys(Dnp) -NH2 [NFF-2, No. 3167-v, manufactured by Peptide Institute, Inc.]. The enzymatic reaction was carried out at 37° C. for 2.5 hours in a dark place, and the relative fluorescence intensity was measured at a fluorescence wavelength of 400 nm with an excitation wavelength of 327 nm.

[2] = test system: Colon 26/AD cells (mouse colon cancer); type: in vivo
Protocol: Colon 26 mouse colon cancer cells (obtained from Cancer Chemotherapy Center Foundation for Cancer Research) were transplanted subcutaneously to BALB/c mouse, 10 days later, the grown tumor was taken out. It was hashed in a Hanks equilibrium salt solution and passed through a metal mesh to obtain single cells, which were cultured in vitro (37° C., 5% CO2) (using 10% fetal bovine serum-containing Dulbecco's Modified Eagle Medium (D-5648, manufactured by Sigma Co.)). […] The same cell strain always produced and secreted MMP-2 in the supernatant of the in vitro culture, but when cultured by an addition of TNF-α (50 ng/ml) in the culture solution, it produced MMP-9 remarkably.
With reference to the method by Tsuruo et al (Japanese Journal of Cancer Research (Gann), Vol. 75, 193-198, 1984), the inhibition effects against experimental lung metastasis were evaluated. Namely, 3×10^4 Colon 26/AD cells (suspended in 0.2 ml of Minimum Essential Medium (manufactured by Nissui Seiyaku K. K.)) cultured in vitro were transplanted through the tail vein of a male BALB/c AnNCrj mouse (purchased from Charles River Japan, Inc.) of 6 weeks old (Day 0). In the case of Compound No. 37, it was suspended in a 1% Tween 80/physiological sodium chloride aqueous solution and intraperitoneally administered (administered in a volume of 10 ml/kg) immediately (within 5 minutes) before transplantation of the cells, 2 hours later and once per day on Day 1-4 and Day 7-11 (a total of 11 times). Further, in the case of Compound No. 157, it was dissolved in 100 mM Tris-HCl (pH 8.5)/150 mM NaCl and forcibly orally administered (administered in a volume of 10 ml/kg) by means of a metal sonde 30 minutes before transplantation of the cells, in the morning and evening of Day 1 and once per day on Day 2-4, Day 7-11 and Day 14 (a total of 12 times). To the vehicle control group, the respective solvents containing no test materials, were administered in the same manner. On Day 14 or Day 15, the lung of each mouse was taken out, and the weight was measured, and the metastatis inhibition rate was calculated in accordance with the following formula. [formula]
A is the weight of lung of the treated group
B is the average weight of lung of the normal group
C is the average weight of lung of the solvent control group.

[3] = 1st measurement, read-out: MMP-9 inhibition activities IC50, 1st
[4] = 2nd measurement, read-out: MMP-9 inhibition activities IC50, 2nd
[5] = average of 1st and 2nd (or single measurement), read-out: MMP-9 inhibition activities IC50, Average

T1 sequence (P14780 107-707 limits assumed): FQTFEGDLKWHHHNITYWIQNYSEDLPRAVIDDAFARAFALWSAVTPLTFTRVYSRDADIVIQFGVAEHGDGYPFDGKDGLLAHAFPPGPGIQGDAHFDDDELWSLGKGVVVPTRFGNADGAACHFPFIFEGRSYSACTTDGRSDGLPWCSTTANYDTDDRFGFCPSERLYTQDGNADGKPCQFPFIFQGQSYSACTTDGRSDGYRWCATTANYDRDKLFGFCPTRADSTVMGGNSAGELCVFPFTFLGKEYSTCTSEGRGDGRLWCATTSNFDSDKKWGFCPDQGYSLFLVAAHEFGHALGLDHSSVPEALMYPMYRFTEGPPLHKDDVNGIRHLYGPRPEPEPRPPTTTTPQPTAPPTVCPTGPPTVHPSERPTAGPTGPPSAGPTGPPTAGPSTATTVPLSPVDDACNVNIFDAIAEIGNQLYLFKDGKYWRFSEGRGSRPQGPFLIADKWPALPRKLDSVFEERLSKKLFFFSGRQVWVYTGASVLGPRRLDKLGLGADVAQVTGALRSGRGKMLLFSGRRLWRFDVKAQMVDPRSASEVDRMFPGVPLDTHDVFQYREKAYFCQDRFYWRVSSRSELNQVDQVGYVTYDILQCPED

Row | IC50 [1, 3] [µM] | IC50 [1, 4] [µM] | IC50 [1, 5] [µM] | melting point | Compound | IC50 (human MMP-7) [µM] | Metastatis inhibition ratio (%) ([2]; 30 mg/kg × 11 times, intraperitoneal, Day 14) [%*] | Lung weight increase (g) against normal mouse ([2]; 30 mg/kg × 11 times, intraperitoneal, Day 14, vehicle control 0.189 ± 0.07) [g] | Weight of lung (g) (Day 14) ([2]; 30 mg/kg × 11 times, intraperitoneal, Day 14, vehicle control 0.402, normal mouse 0.213) | inhibition ratio of experimental metastasis of Colon 26/AD to lung ([2]; 30 mg/kg, intraperitoneal administration, total of 11 times, male BALB/c mouse, from lung weight) [%]
1 | 22.6 | 29.3 | 26 | 183.5 °C (dec.) | NNC(=C[N+](=O)[O-])Nc1ccc(F)cc1 [compound 53] | – | – | – | – | –
2 | 18.2 | 14 | 16.1 | 206 °C (dec.) | CCNC(=C[N+](=O)[O-])NNc1cc(C(F)(F)F)cc(Cl)n1 [compound 102] | – | – | – | – | –
3 | 30.6 | 31.9 | 31.8 | 170 °C (dec.) | CNC(=C[N+](=O)[O-])NN=C(C)c1ccccn1 [compound 33] | – | – | – | – | –
4 | 38.2 | 30.9 | 34.6 | 193 to 197 °C (dec.) | NNC(=C[N+](=O)[O-])NC1Cc2ccccc2C1 [compound 112] | – | – | – | – | –
5 | 17.7 | 37.1 | 27.4 | 172 °C (dec.) | CNC(=C[N+](=O)[O-])NN=Cc1ccc(C)cc1 [compound 137] | – | – | – | – | –
6 | 4.9 | 8.4 | 6.7 | 128 °C | CNC(=C[N+](=O)[O-])NNc1cc(C(F)(F)F)cc(OCCOCCOC)n1 [compound 194] | – | – | – | – | –

Row | Compound | IC50 [1, 3] [µM] | IC50 [1, 4] [µM] | IC50 [1, 5] [µM] | melting point | IC50 (human MMP-7) [µM] | Metastatis inhibition ratio (%) ([2]; 30 mg/kg × 11 times, intraperitoneal, Day 14) [%*] | Lung weight increase (g) against normal mouse ([2]; 30 mg/kg × 11 times, intraperitoneal, Day 14, vehicle control 0.189 ± 0.07) [g] | Weight of lung (g) (Day 14) ([2]; 30 mg/kg × 11 times, intraperitoneal, Day 14, vehicle control 0.402, normal mouse 0.213) | inhibition ratio of experimental metastasis of Colon 26/AD to lung ([2]; 30 mg/kg, intraperitoneal administration, total of 11 times, male BALB/c mouse, from lung weight) [%]
7 | CNC(=C[N+](=O)[O-])NNc1cc(C(F)(F)F)cc(Cl)n1 [Compound No. 37] | 4.5 | 7 | 5.8 | – | 24.5 | 40.2 | 0.113 ± 0.06 | 0.326 | 40.2
